Results published in US20090209527A1, “Methods for Using Rapamycin Analogues in the Treatment of Neurological Disorders” (Wyeth, priority 2008, published 2009).

What was measured:
tMCAO in rats = experiment: Transient middle cerebral artery occlusion (tMCAO) model of ischemic stroke; assay type: in vivo, rat; details: for reduction of infarct volume: 72 hours
Protocol: The compound of Example 2 was evaluated in two known rodent models of ischemic stroke. [Bederson J B, Pitts L H, Tsuji M, Nishimura M C, Davis R L, Bartkowski H (1986) Rat middle cerebral artery occlusion: evaluation of the model and development of a neurologic examination. Stroke 17(3): 472-476; Chen S T, Hsu C Y, Hogan E L, Maricq H Balentine J D (1986) A model of focal ischemic stroke in the rat: reproducible extensive cortical infarction. Stroke 17:738-743. DeRyck M, van Reempts J, Duytschaever H, van Deuren B, Clincke G (1992) Neocortical localization of tactile/proprioceptive limb placing reactions in the rat. Brain Res 573:44-60; Longa Z E, Weinstein P R, Carlson S, Cummins R. (1989) Reversible middle cerebral artery occlusion without craniectomy in rats. Stroke 20:294-297.]
The first model is a transient middle cerebral artery occlusion (tMCAO), in which the MCA is occluded for 90 minutes, followed by 72 hours of reperfusion. Rats were subjected to tMCAO and treated with either the compound of Example 2 (3 mg/kg, 10 mg/kg, or 30 mg/kg) via intravenous delivery [iv vehicle: 5% Tween 80, 5% PEG 400, 4% ethanol] or vehicle alone at 4, 6, 24, and 48 hours post-occlusion (4 total doses). Neurological deficits (modified Bederson scale) and weight loss were monitored at 0, 24, 48, and 72 hours post occlusion. At the end of the evaluation period, rats were euthanized and infarct volume was determined. A modified Bederson scale was used to evaluate neurological deficits following stroke. Animals were scored on a scale of 0 to 5, based on five parameters (forelimb flexion, torso twisting, resistant to lateral push, circling to contralateral side, and spontaneous circling). A score of 0 is normal whereas a score of 5 represents severe neurological deficits.

[1] = tested on: Spinal cord neuron cultures; experiment: Spinal cord neuron assay; assay type: cell-based; details: Rattus norvegicus, 72 hours treatment, read-out: EC50 in spinal cord neuron assays
Protocol: Spinal cord neuron cultures were prepared from embryonic day 15 (E15) rat embryos (Liu et al., Screening of Immunophilin Ligands by Quantitative Analysis of Neurofilament Expression and Neurite Outgrowth in Cultured Neurons and Cells, J. Neurosci. Methods, 2007 Jul. 30; 163(2):310-20). The embryos were collected and their spinal cords were removed in ice-cold phosphate-buffered saline (PBS) without Ca^2+ and Mg^2+. Dissected pieces of spinal cord tissue were pooled together and transferred to an enzymatic dissociation media containing 20 IU/mL papain in Earle's balanced salt solution (Worthington Biochemical, Freehold, N.J.) and incubated for 30 minutes at 37° C. After enzymatic dissociation, the papain solution was aspirated and the tissue mechanically triturated with a fire-polished Pasteur pipette in complete media [Neurobasal Medium with B-27 supplement (Gibco, Grand Island, N.Y.), 100 IU/mL penicillin, 100 µg/mL streptomycin, […] aphidicolin, 0.5 mM glutamate] containing 2,000 IU/mL DNase and 10 mg/mL ovomucoid protease inhibitor. Single-cell suspensions in complete media were plated on pre-coated poly-L-ornithine/laminin 96-well plates (Becton-Dickinson, Bedford, Mass.) at a density of 1.0×10^4 cells/well. Spinal cord neurons were maintained for 24 hours then exposed to vehicle or various concentrations of compound for 72 hours.

SMILES: CO[C@H]1C[C@@H]2CC[C@@H](C)[C@@](O)(O2)C(=O)C(=O)N2CCCC[C@H]2C(=O)O[C@H]([C@H](C)C[C@@H]2CC[C@@H](O)[C@H](OC)C2)CC(=O)[C@H](C)/C=C(\C)[C@@H](O)[C@@H](OC)C(=O)[C@H](C)C[C@H](C)[C@@H]2CC[C@H](/C=C/1C)ON2c1ccccc1 [Example 2, 9,27-dihydroxy-3-{2-[4-hydroxy-3-methoxycyclohexyl]-1-methylethyl}-10,21-dimethoxy-6,8,12,14,20,26-hexamethyl-37-phenyl-4,9,10,12,13,14,15,16,17,18,21,22,23,24,25,26,27,32,33,34,34a-henicosahydro-3H-23,27-epoxy-18,15-(epoxyimino)pyrido[2,1-c][1,4]oxazacyclohentriacontine-1,5,11,28,29(6H,31H)-pentone]
- weight loss following tMCAO (tMCAO in rats; 3 mg/kg iv): significantly attenuated weight loss
- neurological deficits (modified Bederson scale) following tMCAO vs vehicle (tMCAO in rats; 3 mg/kg iv at 4, 6, 24 and 48 hours post-occlusion): showed trends of improving neurological deficits, but did not reach statistical significance
- reduction of infarct volume (tMCAO in rats; 3 mg/kg iv, did not reach statistical significance): 9%
- weight loss following tMCAO (tMCAO in rats; 10 mg/kg iv): significantly attenuated weight loss
- neurological deficits (modified Bederson scale) following tMCAO vs vehicle (tMCAO in rats; 10 mg/kg iv at 4, 6, 24 and 48 hours post-occlusion): significantly improved neurological deficits
- reduction of infarct volume (tMCAO in rats; 10 mg/kg iv, significant vs vehicle): 24%
- weight loss following tMCAO (tMCAO in rats; 30 mg/kg iv): significantly attenuated weight loss
- neurological deficits (modified Bederson scale) following tMCAO vs vehicle (tMCAO in rats; 30 mg/kg iv at 4, 6, 24 and 48 hours post-occlusion): significantly improved neurological deficits
- reduction of infarct volume (tMCAO in rats; 30 mg/kg iv, significant vs vehicle): 23%
- infarct volume following tMCAO in rats (FIG. 10) (tMCAO in rats; dose not stated): reduces infarct volume
- neurological deficits following tMCAO in rats (FIG. 8) (tMCAO in rats; dose not stated): improves neurological deficits
- weight loss following tMCAO in rats (FIG. 9) (tMCAO in rats; dose not stated): attenuates weight loss
- EC50 [1]: < 1000 nM
